Measurements published in ChEMBL document CHEMBL1123145, “Synthesis of pyrrolizidine alkaloids indicine, intermedine, lycopsamine, and analogues and their N-oxides. Potential antitumor agents” (1985).

Columns and labels:
Format in all cases: functional, Mus musculus
P388 [1] = experiment: Number of Survivors determined for antitumor activity against P388 Lymphocytic Leukemia system on day 5 at a dose of 17.5 mg/kg (6 out of 6)
P388 [2] = experiment: Weight difference observed in survivors treated for antitumor activity against P388 Lymphocytic Leukemia system at a dose of 8.75 mg/kg
P388 [3] = experiment: Survival rate of the animals determined for antitumor activity against P388 Lymphocytic Leukemia system at a dose of 17.5 mg/kg
P388 [4] = experiment: Survival rate of the animals determined for antitumor activity against P388 Lymphocytic Leukemia system at a dose of 35 mg/kg
P388 [5] = experiment: Number of Survivors determined for antitumor activity against P388 Lymphocytic Leukemia system on day 5 at a dose of 35 mg/kg (6 out of 6)
P388 [6] = experiment: Number of Survivors determined for antitumor activity against P388 Lymphocytic Leukemia system on day 5 at a dose of 70 mg/kg(6 out of 6)
P388 [7] = experiment: Number of Survivors determined for antitumor activity against P388 Lymphocytic Leukemia system on day 5 at a dose of 8.75 mg/kg(6 out of 6)
P388 [8] = experiment: Survival rate of the animals determined for antitumor activity against P388 Lymphocytic Leukemia system at a dose of 70 mg/kg
P388 [9] = experiment: Survival rate of the animals determined for antitumor activity against P388 Lymphocytic Leukemia system at a dose of 8.75 mg/kg
P388 [10] = experiment: Weight difference observed in survivors treated for antitumor activity against P388 Lymphocytic Leukemia system at a dose of 35 mg/kg
P388 [11] = experiment: Weight difference observed in survivors treated for antitumor activity against P388 Lymphocytic Leukemia system at a dose of 70 mg/kg
P388 [12] = experiment: Weight difference observed in survivors treated for antitumor activity against P388 Lymphocytic Leukemia system at a dose of 17.5 mg/kg
P388 [13] = experiment: Survival rate of the animals determined for antitumor activity against P388 Lymphocytic Leukemia system at a dose of 192 mg/kg
P388 [14] = experiment: Survival rate of the animals determined for antitumor activity against P388 Lymphocytic Leukemia system at a dose of 24 mg/kg
P388 [15] = experiment: Weight difference observed in survivors treated for antitumor activity against P388 Lymphocytic Leukemia system at a dose of 96 mg/kg
P388 [16] = experiment: Survival rate of the animals determined for antitumor activity against P388 Lymphocytic Leukemia system at a dose of 48 mg/kg
P388 [17] = experiment: Weight difference observed in survivors treated for antitumor activity against P388 Lymphocytic Leukemia system at a dose of 24 mg/kg
P388 [18] = experiment: Weight difference observed in survivors treated for antitumor activity against P388 Lymphocytic Leukemia system at a dose of 48 mg/kg
P388 [19] = experiment: Survival rate of the animals determined for antitumor activity against P388 Lymphocytic Leukemia system at a dose of 96 mg/kg

SMILES	Survivors (P388 [1])	T-C (P388 [2])	T/C (P388 [3]) [%]	T/C (P388 [4]) [%]	Survivors (P388 [5])	Survivors (P388 [6])	Survivors (P388 [7])	T/C (P388 [8]) [%]	T/C (P388 [9]) [%]	T-C (P388 [10])	T-C (P388 [11])	T-C (P388 [12])	T/C (P388 [13]) [%]	T/C (P388 [14]) [%]	T-C (P388 [15])	T/C (P388 [16]) [%]	T-C (P388 [17])	T-C (P388 [18])	T/C (P388 [19]) [%]
O=C(OCC1=CC[N+]2([O-])CC[C@@H](O)C12)c1ccccc1 (some centres undefined)	6	-0.4	110	109	6	6	6	118	107	-0.1	-1	-0.7	–	–	–	–	–	–	–
CC(C)C(O)(C(=O)OCC1=CC[N+]2([O-])CC[C@@H](O)C12)C(C)O (stereo in doubt; form 1)	–	–	–	–	–	–	–	–	–	–	–	–	123	107	-0.3	114	0	-0.6	114
